Test results from patent US10519154B2, “7-substituted 1-pyridyl-naphthyridine-3-carboxylic acid amides and use thereof” (Bayer Pharma Aktiengesellschaft, priority 2016, dated 2019).

Molecular target: T1, human M2 receptor (Homo sapiens, UniProt P08172)
T1 sequence (P08172 1-466): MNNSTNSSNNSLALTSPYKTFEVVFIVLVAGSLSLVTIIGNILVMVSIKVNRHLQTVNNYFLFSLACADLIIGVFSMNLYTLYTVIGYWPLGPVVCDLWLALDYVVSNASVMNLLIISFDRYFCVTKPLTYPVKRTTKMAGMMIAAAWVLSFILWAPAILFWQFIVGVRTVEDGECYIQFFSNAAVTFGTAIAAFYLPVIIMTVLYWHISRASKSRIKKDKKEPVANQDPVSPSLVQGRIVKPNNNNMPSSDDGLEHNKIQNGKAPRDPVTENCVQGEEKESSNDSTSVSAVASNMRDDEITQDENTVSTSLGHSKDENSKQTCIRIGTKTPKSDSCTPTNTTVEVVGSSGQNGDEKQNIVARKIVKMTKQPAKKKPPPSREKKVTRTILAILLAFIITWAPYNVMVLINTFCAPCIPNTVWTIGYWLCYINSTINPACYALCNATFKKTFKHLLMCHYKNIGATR
Assay: Functional M2-GIRK1/4 activation test: allosteric potency (EC50) and efficiency
Settings: for EC50: Receptor activity EC50, CHO-DUKX-M2-GIRK cells, acetylcholine at EC20, in some cases mean of two or more determinations; for Emax: read-out: Efficiency, boosting of the acetylcholine effect at EC20 acetylcholine concentration

Row | Structure (SMILES) | EC50 [nM] | Efficiency (boosting of the acetylcholine effect at EC20 acetylcholine concentration, CHO-DUKX-M2-GIRK cells) [%] | Emax (CHO-DUKX-M2-GIRK cells) [%]
1 | CC(NC(=O)c1cn(-c2ncc(F)cc2F)c2nc(N3CC4(COC4)C3)ccc2c1=O)C(F)(F)C(F)(F)F (single isomer, unassigned) [Example 181, 1-(3,5-Difluoropyridin-2-yl)-7-(2-oxa-6-azaspiro[3.3]hept-6-yl)-4-oxo-N-[3,3,4,4,4-pentafluorobutan-2-yl]-1,4-dihydro-1,8-naphthyridine-3-carboxamide] | 220 |  | 100
2 | O=C(N[C@H](C1CC1)C(F)(F)F)c1cn(-c2ncc(F)cc2F)c2nc(N3CCCN(CCO)C3=O)ccc2c1=O [Example 122, N-[(1R)-1-Cyclopropyl-2,2,2-trifluoroethyl]-1-(3,5-difluoropyridin-2-yl)-7-[3-(2-hydroxyethyl)-2-oxotetrahydropyrimidin-1(2H)-yl]-4-oxo-1,4-dihydro-1,8-naphthyridine-3-carboxamide] | 220 |  | 92
3 | CC(C)C(NC(=O)c1cn(-c2ncc(F)cc2F)c2nc(N3CCNC3=O)ccc2c1=O)C(F)(F)F (racemic) [Example 169, 1-(3,5-Difluoropyridin-2-yl)-4-oxo-7-(2-oxoimidazolidin-1-yl)-N-[1,1,1-trifluoro-3-methylbutan-2-yl]-1,4-dihydro-1,8-naphthyridine-3-carboxamide] | 120 |  | 97.5
4 | O=C(N[C@H](C1CC1)C(F)(F)F)c1cn(-c2ncc(F)cc2Cl)c2nc(N3C[C@@H](O)[C@@H](O)C3)ccc2c1=O [Example 50, 1-(3-Chloro-5-fluoropyridin-2-yl)-N-[(1R)-1-cyclopropyl-2,2,2-trifluoroethyl]-7-[(3R,4S)-3,4-dihydroxypyrrolidin-1-yl]-4-oxo-1,4-dihydro-1,8-naphthyridine-3-carboxamide] | 730 |  | 92
5 | O=C(NC1(C(F)(F)F)CCC1)c1cn(-c2ncc(F)cc2F)c2nc(N3CCNC3=O)ccc2c1=O [Example 150, 1-(3,5-Difluoropyridin-2-yl)-4-oxo-7-(2-oxoimidazolidin-1-yl)-N-[1-(trifluoromethyl)cyclobutyl]-1,4-dihydro-1,8-naphthyridine-3-carboxamide] | 375 |  | 88
6 | CC[C@@H](NC(=O)c1cn(-c2ncc(F)cc2F)c2nc(N3CCC(C)(O)C3)ccc2c1=O)C(F)(F)F (mixture of isomers) [Example 46, 1-(3,5-Difluoropyridin-2-yl)-7-[3-hydroxy-3-methylpyrrolidin-1-yl]-4-oxo-N-[(2R)-1,1,1-trifluorobutan-2-yl]-1,4-dihydro-1,8-naphthyridine-3-carboxamide] | 385 |  | 97
7 | CC[C@@H](NC(=O)c1cn(-c2ncccc2F)c2nc(N3CC4CC4(O)C3)ccc2c1=O)C(F)(F)F (mixture of isomers) [Example 134, 1-(3-Fluoropyridin-2-yl)-7-[1-hydroxy-3-azabicyclo[3.1.0]hex-3-yl]-4-oxo-N-[(2R)-1,1,1-trifluorobutan-2-yl]-1,4-dihydro-1,8-naphthyridine-3-carboxamide] | 105 |  | 100
8 | CC(CF)(CF)NC(=O)c1cn(-c2ncc(F)cc2F)c2nc(N3C[C@@H](O)[C@H](O)C3)ccc2c1=O [Example 103, N-(1,3-Difluoro-2-methylpropan-2-yl)-1-(3,5-difluoropyridin-2-yl)-7-[(3R,4R)-3,4-dihydroxypyrrolidin-1-yl]-4-oxo-1,4-dihydro-1,8-naphthyridine-3-carboxamide] | 305 |  | 100
9 | O=C(NC1CCC1)c1cn(-c2ncc(F)cc2F)c2nc(N3CCNC3=O)ccc2c1=O [Example 146, N-Cyclobutyl-1-(3,5-difluoropyridin-2-yl)-4-oxo-7-(2-oxoimidazolidin-1-yl)-1,4-dihydro-1,8-naphthyridine-3-carboxamide] | 910 |  | 96
10 | O=C(NC(C(F)(F)F)C(F)(F)F)c1cn(-c2ncc(F)cc2F)c2nc(N3C[C@H](O)[C@@H](O)C3)ccc2c1=O [Example 60, 1-(3,5-Difluoropyridin-2-yl)-7-[(3S,4S)-3,4-dihydroxypyrrolidin-1-yl]-N-(1,1,1,3,3,3-hexafluoropropan-2-yl)-4-oxo-1,4-dihydro-1,8-naphthyridine-3-carboxamide] | 275 |  | 100
11 | CC[C@H](NC(=O)c1cn(-c2c(F)cncc2F)c2nc(N3C[C@@H](O)CC3=O)ccc2c1=O)C(F)(F)F [Example 24, 1-(3,5-Difluoropyridin-4-yl)-7-[(4S)-4-hydroxy-2-oxopyrrolidin-1-yl]-4-oxo-N-[(2S)-1,1,1-trifluorobutan-2-yl]-1,4-dihydro-1,8-naphthyridine-3-carboxamide] | 560 |  | 87
12 | CC[C@H](NC(=O)c1cn(-c2c(F)cncc2F)c2nc(N3C[C@@H](O)[C@H](O)C3)ccc2c1=O)C(F)(F)F [Example 118, 1-(3,5-Difluoropyridin-4-yl)-7-[(3R,4R)-3,4-dihydroxypyrrolidin-1-yl]-4-oxo-N-[(2S)-1,1,1-trifluorobutan-2-yl]-1,4-dihydro-1,8-naphthyridine-3-carboxamide] | 500 |  | 100

Further lines, results first:

Row | EC50 [nM] | Efficiency (boosting of the acetylcholine effect at EC20 acetylcholine concentration, CHO-DUKX-M2-GIRK cells) [%] | Emax (CHO-DUKX-M2-GIRK cells) [%] | Structure (SMILES)
13 | 57 | 96.00 |  | CC[C@@H](NC(=O)c1cn(-c2ncc(F)cc2F)c2nc(N3CC4CC4(O)C3)ccc2c1=O)C(F)(F)F (single isomer, unassigned) [Example 45]
14 | 14 |  | 95 | O=C(NC(c1ccccc1Cl)C(F)(F)F)c1cn(-c2ncc(F)cc2F)c2nc(N3C[C@@H](O)CC3=O)ccc2c1=O (single isomer, unassigned) [Example 6]
15 | 103 |  | 99.5 | CC(NC(=O)c1cn(-c2ncc(F)cc2F)c2nc(N3C[C@@H](O)[C@H](O)C3)ccc2c1=O)(C(F)(F)F)C(F)(F)F [Example 152, 1-(3,5-Difluoropyridin-2-yl)-7-[(3R,4R)-3,4-dihydroxypyrrolidin-1-yl]-N-(1,1,1,3,3,3-hexafluoro-2-methylpropan-2-yl)-4-oxo-1,4-dihydro-1,8-naphthyridine-3-carboxamide]
16 | 20 |  | 94.5 | O=C(NC(c1c(F)cccc1F)C(F)(F)F)c1cn(-c2ncc(F)cc2F)c2nc(N3C[C@@H](O)CC3=O)ccc2c1=O (stereo partly drawn) [Example 9, N-[1-(2,6-Difluorophenyl)-2,2,2-trifluoroethyl]-1-(3,5-difluoropyridin-2-yl)-7-[(4S)-4-hydroxy-2-oxopyrrolidin-1-yl]-4-oxo-1,4-dihydro-1,8-naphthyridine-3-carboxamide]
17 | 68 |  | 100 | CCC(NC(=O)c1cn(-c2ncc(F)cc2F)c2nc(N3C[C@@H](O)[C@H](O)C3)ccc2c1=O)C(F)(F)C(F)(F)F (single isomer, unassigned) [Example 96]
18 | 28 |  | 100 | CC(C)C[C@H](NC(=O)c1cn(-c2ncc(F)cc2F)c2nc(N3C[C@@H](O)[C@H](O)C3)ccc2c1=O)C(F)(F)F [Example 82, 1-(3,5-Difluoropyridin-2-yl)-7-[(3R,4R)-3,4-dihydroxypyrrolidin-1-yl]-4-oxo-N-[(2S)-1,1,1-trifluoro-4-methylpentan-2-yl]-1,4-dihydro-1,8-naphthyridine-3-carboxamide]
19 | 98 |  | 100 | CC1C(=O)N(c2ccc3c(=O)c(C(=O)N[C@@H](C4CC4)C(F)(F)F)cn(-c4ncc(F)cc4F)c3n2)CC1O (single isomer, unassigned) [Example 105]
20 | 74 |  | 92.5 | CC[C@@H](NC(=O)c1cn(-c2ncc(F)cc2Cl)c2nc(N3CC4CC4(O)C3)ccc2c1=O)C(F)(F)F (mixture of isomers) [Example 48, 1-(3-Chloro-5-fluoropyridin-2-yl)-7-[1-hydroxy-3-azabicyclo[3.1.0]hex-3-yl]-4-oxo-N-[(2R)-1,1,1-trifluorobutan-2-yl]-1,4-dihydro-1,8-naphthyridine-3-carboxamide]
21 | 22 |  | 100 | O=C(NC(C1CC1)C(F)(F)F)c1cn(-c2ncc(F)cc2F)c2nc(N3CC4CC4(O)C3)ccc2c1=O (stereo not shown) [Example 36, N-[1-Cyclopropyl-2,2,2-trifluoroethyl]-1-(3,5-difluoropyridin-2-yl)-7-[1-hydroxy-3-azabicyclo[3.1.0]hex-3-yl]-4-oxo-1,4-dihydro-1,8-naphthyridine-3-carboxamide]
22 | 48 |  | 90.5 | O=C(N[C@H](C1CC1)C(F)(F)F)c1cn(-c2ncc(F)cc2Cl)c2nc(N3CC4CC4(O)C3)ccc2c1=O (mixture of isomers) [Example 52, 1-(3-Chloro-5-fluoropyridin-2-yl)-N-[(1R)-1-cyclopropyl-2,2,2-trifluoroethyl]-7-[1-hydroxy-3-azabicyclo[3.1.0]hex-3-yl]-4-oxo-1,4-dihydro-1,8-naphthyridine-3-carboxamide]
23 | 47 |  | 94.5 | C[C@@H]1CN(c2ccc3c(=O)c(C(=O)N[C@@H](C4CC4)C(F)(F)F)cn(-c4ncc(F)cc4F)c3n2)C(=O)N1 [Example 142, N-[(1S)-1-cyclopropyl-2,2,2-trifluoroethyl]-1-(3,5-difluoropyridin-2-yl)-7-[(4R)-4-methyl-2-oxoimidazolidin-1-yl]-4-oxo-1,4-dihydro-1,8-naphthyridine-3-carboxamide]
